This passage reports Acid dissociation constant and Solubility to water results from patent US8859060B2, “Protective film of polarizer, polarizer and liquid crystal display device” (FUJIFILM Corporation, priority 2009, dated 2014).

“And” between values parts separate entries of the source, which are not always exact repeats. Equal values may be shown once.

A short description of one data set: Acid dissociation constant by alkali titration in THF/water=6/4. Type of data set: physicochemical. The conditions noted are these: mixed solvent of THF/water=6/4 by volume at 25° C. As for the experimental part: Preferably, the acid dissociation constant of the organic acid in a mixed solvent of THF/water=6/4 by volume at 25° C. is from 2.5 to 7, more preferably from 2.5 to 6.5, even more preferably from 3 to 5.
In turn, `O=C(O)C=Cc1ccccc1` [Cinnamic acid, cinnamic acid, reference compound] displayed an Acid dissociation constant of 4.7. Still for that read-out and setting: under `O=C(O)CC(O)(CC(=O)O)C(=O)O` [Citric acid, citric acid, reference compound] stands 4.0. On the same count and under the same terms, under `O=C1NC(=O)N(Cc2ccccc2)C(=O)C1c1ccccc1` (stereo not shown) [Organic acid A] stands 4.0 and 3.0.

With `CCC(Oc1ccc(C(C)(C)CC)cc1C(C)(C)CC)C(=O)Nc1cccc(C(=O)O)c1` (stereo not shown) [Organic acid B], the Acid dissociation constant amounted to 6.6. Still for that read-out and setting: under `Nc1c(F)c(F)c(C(=O)O)c(F)c1F` [Organic acid C] stands 5.0. `CC(=O)Nc1c(I)cc(I)c(C(=O)O)c1I` [Organic acid D] gave an Acid dissociation constant of 4.4. Take `CCC(C)(C)c1ccc(OCCCC(=O)O)c(C(C)(C)CC)c1` [Organic acid F, reference compound]: the Acid dissociation constant was found to be 7.3. `O=C1NS(=O)(=O)c2ccccc21` [Organic acid H] gave an Acid dissociation constant of 2.6. The same measure, in the same setting: under `O=C(O)c1ccc(C(=O)O)cc1` [Terephthalic acid, reference compound] stands 4.5.

The next data set in a line: Solubility in water at 25° C.
Details: not given
Regarding `O=C(O)c1ccc(C(=O)O)cc1` [Terephthalic acid, reference compound], the Solubility to water result is “More than 1 wt %”.
